The record followed here is US20260257980A1, “NOVEL DIMETHYLCHALCONE DERIVATIVE” (CHUNG-ANG UNIVERSITY INDUSTRY-ACADEMIC COOPERATION …, priority 2022, published 2026).

In this experiment the test system is C2C12 myoblasts differentiated into myotubes. The experiment is described as follows: Fatty acid oxidation rate (14CO2 from [1-14C] palmitate) in differentiated C2C12 myotubes. Format: cell-based. As to conditions: 10 μM DMC derivative, 24 hours, lysate with 0.2 mmol/L [1-14C] palmitate, 3 hours, positive control AICAR, control compounds CON1-CON6, FIG. 1. The method, then: To measure the fatty acid oxidation rate, C2C12 myoblasts were primarily cultured in DMEM supplemented with 10% fetal bovine serum, and then cultured for 5 days in DMEM supplemented with 2% horse serum in order to differentiate into myotubes. Then, the differentiated myotubes were treated with 10 μM of the DMC derivative, and cultured for 24 hours, and the cells were then harvested. Next, the harvested cells were lysed using a mitochondrial isolation buffer (250 mmol/L sucrose, 10 mmol/L Tris-HCl, and 1 mmol/L EDTA), treated with 0.2 mmol/L [1-^14C] palmitate, and then allowed to react for 3 hours. Next, the amount of ^14CO2 thus generated was measured, and the measured amount of ^14CO2 was corrected for the total amount of proteins to compare the fatty acid oxidation rate. In this case, AICAR was used as a positive control, and the compounds shown in Table 2 below were used as control compounds.
For `COCOc1c(C)c(O)c(C(=O)/C=C/c2cccc(F)c2)c(OC)c1C` [Compound 1, 1-(2′-hydroxy-4′-(methoxymethoxy)-6′-methoxy-3′,5′-dimethylphenyl)-3-(3-fluorophenyl)-2-propen-1-one], the “fatty acid oxidation rate (amount of 14CO2 generated, corrected for total protein)” value was “higher fatty acid oxidation effect than the derivatives (CON1, CON2)”. In the case of `COc1c(C)c(O)c(C)c(O)c1C(=O)/C=C/c1cccc(F)c1` [Compound 8, 1-(2′,4′-dihydroxy-6′-methoxy-3′,5′-dimethylphenyl)-3-(3-fluorophenyl)-2-propen-1-one] it was “higher fatty acid oxidation effect than the derivatives (CON3, CON4)”; in that of `COc1c(C)c(OC)c(C(=O)/C=C/c2cccc(F)c2)c(OC)c1C` [Compound 15, 1-(2′,4′,6′-trimethoxy-3′,5′-dimethylphenyl)-3-(3-fluorophenyl)-2-propen-1-one], “higher fatty acid oxidation effect than the derivatives (CON5, CON6)”.
